Measured values from PubChem BioAssay (NCI).
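Method: 48-hour compound exposure of cells in 96-well plates, five concentrations, linear interpolation of endpoints. GI50 is the concentration that inhibits growth by half. TGI marks complete inhibition of growth.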

Assays:
Experiment in all cases: growth of human tumour cells (NCI), 48 h
UACC-257 melanoma = tested on: UACC-257 melanoma
SNB-75 CNS = tested on: SNB-75 CNS
BT-549 breast = tested on: BT-549 breast
MDA-MB-231 breast = tested on: MDA-MB-231 breast
HCT-116 colon = tested on: HCT-116 colon
NCI-H23 lung = tested on: NCI-H23 lung
SN12C renal = tested on: SN12C renal
T-47D breast = tested on: T-47D breast
COLO 205 colon = tested on: COLO 205 colon
OVCAR-3 ovarian = tested on: OVCAR-3 ovarian
786-0 renal = tested on: 786-0 renal
SF-539 CNS = tested on: SF-539 CNS
RPMI-8226 leukemia = tested on: RPMI-8226 leukemia
MDA-MB-435 = tested on: MDA-MB-435
DU-145 prostate = tested on: DU-145 prostate
A498 renal = tested on: A498 renal
SK-OV-3 ovarian = tested on: SK-OV-3 ovarian
U251 CNS = tested on: U251 CNS
HCC-2998 colon = tested on: HCC-2998 colon
ACHN renal = tested on: ACHN renal
PC-3 prostate = tested on: PC-3 prostate
NCI-H522 lung = tested on: NCI-H522 lung
IGROV1 ovarian = tested on: IGROV1 ovarian
HL-60(TB) leukemia = tested on: HL-60(TB) leukemia
NCI-H460 lung = tested on: NCI-H460 lung
HOP-62 NSCLC = tested on: HOP-62 NSCLC
SW-620 colon = tested on: SW-620 colon
KM12 colon = tested on: KM12 colon
CCRF-CEM leukemia = tested on: CCRF-CEM leukemia
TK-10 renal = tested on: TK-10 renal
NCI-H226 lung = tested on: NCI-H226 lung
SK-MEL-5 melanoma = tested on: SK-MEL-5 melanoma
UACC-62 melanoma = tested on: UACC-62 melanoma
SNB-19 CNS = tested on: SNB-19 CNS
SF-268 CNS = tested on: SF-268 CNS
MOLT-4 leukemia = tested on: MOLT-4 leukemia
SK-MEL-28 melanoma = tested on: SK-MEL-28 melanoma
HCT-15 colon = tested on: HCT-15 colon
OVCAR-4 ovarian = tested on: OVCAR-4 ovarian
RXF 393 renal = tested on: RXF 393 renal
M14 melanoma = tested on: M14 melanoma
OVCAR-8 ovarian = tested on: OVCAR-8 ovarian
OVCAR-5 ovarian = tested on: OVCAR-5 ovarian
UO-31 renal = tested on: UO-31 renal
EKVX NSCLC = tested on: EKVX NSCLC
HOP-92 NSCLC = tested on: HOP-92 NSCLC
A549 NSCLC = tested on: A549 NSCLC
MALME-3M melanoma = tested on: MALME-3M melanoma
HS 578T breast = tested on: HS 578T breast
SR leukemia = tested on: SR leukemia
NCI/ADR-RES ovarian = tested on: NCI/ADR-RES ovarian
HT29 colon = tested on: HT29 colon
MCF7 breast = tested on: MCF7 breast
SF-295 CNS = tested on: SF-295 CNS
K-562 leukemia = tested on: K-562 leukemia
CAKI-1 renal = tested on: CAKI-1 renal

Compound: C[As](C)SCC(COC(=O)C(Cl)c1ccccc1)OC(=O)C(Cl)c1ccccc1 (stereo not drawn)
- GI50 (UACC-257 melanoma): 0.332 µM
- TGI (UACC-257 melanoma): 12.6 µM
- GI50 (SNB-75 CNS): 10.6 µM
- TGI (SNB-75 CNS): 42.6 µM
- GI50 (BT-549 breast): 2.68 µM
- TGI (BT-549 breast): 14.3 µM
- GI50 (MDA-MB-231 breast): 1.53 µM
- TGI (MDA-MB-231 breast): 4.95 µM
- GI50 (HCT-116 colon): 0.439 µM
- TGI (HCT-116 colon): 2.67 µM
- GI50 (NCI-H23 lung): 0.719 µM
- TGI (NCI-H23 lung): 14.6 µM
- GI50 (SN12C renal): 2.48 µM
- TGI (SN12C renal): 10.9 µM
- GI50 (T-47D breast): 17.1 µM
- TGI (T-47D breast): > 45.8 µM
- GI50 (COLO 205 colon): 1.43 µM
- GI50 (OVCAR-3 ovarian): 0.179 µM
- TGI (OVCAR-3 ovarian): 0.474 µM
- GI50 (786-0 renal): 0.884 µM
- TGI (786-0 renal): 8.05 µM
- GI50 (SF-539 CNS): 0.968 µM
- TGI (SF-539 CNS): 3.43 µM
- GI50 (RPMI-8226 leukemia): 0.299 µM
- TGI (RPMI-8226 leukemia): 1.37 µM
- GI50 (MDA-MB-435): 0.367 µM
- TGI (MDA-MB-435): 3.13 µM
- GI50 (DU-145 prostate): 1.24 µM
- TGI (DU-145 prostate): 16.9 µM
- GI50 (A498 renal): 4.34 µM
- TGI (A498 renal): 17.2 µM
- GI50 (SK-OV-3 ovarian): 2.63 µM
- TGI (SK-OV-3 ovarian): > 54.9 µM
- GI50 (U251 CNS): 3.42 µM
- TGI (U251 CNS): 31.6 µM
- GI50 (HCC-2998 colon): 1.72 µM
- TGI (HCC-2998 colon): 4.75 µM
- GI50 (ACHN renal): 1.36 µM
- TGI (ACHN renal): 11.4 µM
- GI50 (PC-3 prostate): 0.74 µM
- TGI (PC-3 prostate): 19.4 µM
- GI50 (NCI-H522 lung): 0.361 µM
- TGI (NCI-H522 lung): > 38.8 µM
- GI50 (IGROV1 ovarian): 1.93 µM
- TGI (IGROV1 ovarian): > 42.6 µM
- GI50 (HL-60(TB) leukemia): 0.418 µM
- GI50 (NCI-H460 lung): 9.03 µM
- TGI (NCI-H460 lung): 33.6 µM
- GI50 (HOP-62 NSCLC): 6.66 µM
- TGI (HOP-62 NSCLC): 21.6 µM
- GI50 (SW-620 colon): 0.491 µM
- TGI (SW-620 colon): 28.2 µM
- GI50 (KM12 colon): 2.24 µM
- TGI (KM12 colon): 13.5 µM
- GI50 (CCRF-CEM leukemia): 0.339 µM
- TGI (CCRF-CEM leukemia): 2.14 µM
- GI50 (TK-10 renal): 0.222 µM
- TGI (TK-10 renal): 1.58 µM
- GI50 (NCI-H226 lung): 20.1 µM
- TGI (NCI-H226 lung): 41.8 µM
- GI50 (SK-MEL-5 melanoma): 0.305 µM
- TGI (SK-MEL-5 melanoma): 1.12 µM
- GI50 (UACC-62 melanoma): 3.19 µM
- TGI (UACC-62 melanoma): 52.9 µM
- GI50 (SNB-19 CNS): 14.5 µM
- TGI (SNB-19 CNS): 50 µM
- GI50 (SF-268 CNS): 3.3 µM
- TGI (SF-268 CNS): 14.9 µM
- GI50 (MOLT-4 leukemia): 0.49 µM
- GI50 (SK-MEL-28 melanoma): 10.6 µM
- TGI (SK-MEL-28 melanoma): 28.1 µM
- GI50 (HCT-15 colon): 0.229 µM
- TGI (HCT-15 colon): 4.02 µM
- GI50 (OVCAR-4 ovarian): 4.38 µM
- TGI (OVCAR-4 ovarian): 18 µM
- GI50 (RXF 393 renal): 0.641 µM
- TGI (RXF 393 renal): 15 µM
- GI50 (M14 melanoma): 0.614 µM
- TGI (M14 melanoma): 15.7 µM
- GI50 (OVCAR-8 ovarian): 3.41 µM
- TGI (OVCAR-8 ovarian): > 35.2 µM
- GI50 (OVCAR-5 ovarian): 6.69 µM
- TGI (OVCAR-5 ovarian): > 37.2 µM
- GI50 (UO-31 renal): 1.55 µM
- TGI (UO-31 renal): > 44.4 µM
- GI50 (EKVX NSCLC): 2.44 µM
- TGI (EKVX NSCLC): 24.3 µM
- GI50 (HOP-92 NSCLC): 0.381 µM
- TGI (HOP-92 NSCLC): 3.9 µM
- GI50 (A549 NSCLC): 3.84 µM
- TGI (A549 NSCLC): 15.2 µM
- GI50 (MALME-3M melanoma): 0.139 µM
- TGI (MALME-3M melanoma): 1.44 µM
- GI50 (HS 578T breast): 3.4 µM
- TGI (HS 578T breast): 46.5 µM
- GI50 (SR leukemia): 1.41 µM
- TGI (SR leukemia): 5.84 µM
- GI50 (NCI/ADR-RES ovarian): 2.76 µM
- TGI (NCI/ADR-RES ovarian): 16.8 µM
- GI50 (HT29 colon): 0.754 µM
- TGI (HT29 colon): > 100 µM
- GI50 (MCF7 breast): 0.46 µM
- TGI (MCF7 breast): 12.9 µM
- GI50 (SF-295 CNS): 7.79 µM
- TGI (SF-295 CNS): 29.1 µM
- GI50 (K-562 leukemia): 0.147 µM
- GI50 (CAKI-1 renal): 0.506 µM
- TGI (CAKI-1 renal): 6.58 µM
